Measured values as given in US8389521B2, “Inhibitors of protein kinases” (Ingenium Pharmaceuticals GmbH, priority 2007, dated 2013).

Tests used:
[1] = tested on: Tau phosphorylation at Serin396 in differentiated SH-SY5Y cells; test: In vitro SH-SY5Y assay using tau phosphorylation; format: cell-based, human; settings: RA- and BDNF-differentiated SH-SY5Y cells, 90-120 min incubation, Western Blot or ELISA
Description: The human neuroblastoma cell line SH-SY5Y can be utilized as an in vitro model to investigate CDK5 function and the efficacy of CDK5 specific inhibitors. SH-SY5Y cells express tau protein which harbors various phosphorylation sites known to be phosphorylated by several kinases including CDK5. SH-SY5Y cells can be differentiated into neuron-like cells by exposure to 10 μM all trans-retinoic acid for 3 days and subsequent exposure to 50 ng/ml human recombinant brain-derived neurotrophic factor for 3-5 days, thereby upregulating neuronal markers, including tau protein. In addition CDK5 and p35 protein levels were increased during differentiation. RA-BDNF-differentiated cells can therefore serve as a suitable model for studying tau phosphorylation and to screen potential CDK5 inhibitors (Jämsä et al., 2004. BBRC 319; 993-1000). […]
Concentrations of total tau, pS396 tau and pT231 tau within the cell culture lysates are measured by using commercial ELISA Kits (BioSource: human total tau: KHB0042; human pS396 tau: KHB7031; human pT231 tau: KHB7051) according to the manufacturers instructions or by using Western Blots probing with total and phospho-specific antibodies (antibodies: total tau: Santa Cruz, sc-21796; pS396 tau: Santa Cruz, sc-12414; pT231 tau, AT180: Pierce Endogen, MN1040; pS202 tau: AT8: Pierce Endogen, MN1020). […]

melting point | Structure (SMILES) | inhibitory effect on Tau phosphorylation at Serin396 [1]
 | NS(=O)(=O)Cc1ccc(Nc2cc(-c3ccccc3OCc3ccccc3)ncn2)cc1 [Compound 8, {4-[6-(2-Benzyloxy-phenyl)-pyrimidin-4-ylamino]-phenyl}-methanesulfonamide] | significant inhibitory effect
213.5 to 215.1 °C | CCOc1ccccc1-c1cc(Nc2ccc(CS(N)(=O)=O)cc2)ncn1 [Compound 6, {4-[6-(2-Ethoxy-phenyl)-pyrimidin-4-ylamino]-phenyl}-methanesulfonamide] | 
149.2 to 150.8 °C | COCCCNS(=O)(=O)Cc1cccc(Nc2cc(-c3ccccc3OC)ncn2)c1 [Reference Compound 3, C-{3-[6-(2-methoxy-phenyl)-pyrimidin-4-ylamino]-phenyl}-N-(3-methoxy-propyl)-methanesulfonamide] | 
